Source: patent US20250152504A1, “INTRAUTERINE SYSTEMS COMPRISING ANTI-INFECTIVES FOR STEADY-STATE ACCUMULATION TO DISTAL EXTRAUTERINE TISSUE” (priority 2023, published 2025)
Values after ≈ are worked out from the molar mass of the structure shown.

Key:
[1] = type: physicochemical
Source text: Both polyether sheath reservoirs (R1 & R2) released DPV faster than polycarbonate sheath reservoirs (R3 & R4). […] Thus, with DPV loaded at 1 wt % which is below the saturation solubility, these reservoirs contain a nonconstant activity source. Pursuant to the behavior of reservoirs with a nonconstant activity source, these reservoirs released drug following first-order release kinetics. Despite this expectation, drug release from all four reservoir devices was described slightly better by a square-root of time dependence.

physchem = type: physicochemical; details: 37 °C, aqueous with cosolvent or surfactant or cyclodextrin, thermodynamic from solid
Source text: FIGS. 6A-6C are graphs showing differential dapivirine release driven by polymer crystallinity and water penetration, in accordance with the present technology.

[2] = type: in vivo; details: baboon, about one month of intrauterine instillation
Source text: Animals were monitored for signs of discomfort including decreased appetite, lethargy, and hunched posture. Tissue biopsies for histological analysis were fixed in 4% paraformaldehyde, dehydrated in alcohol, and embedded in paraffin. Cross sectional samples (5 μm) were taken and stained with hematoxylin and eosin (H&E) stain.
Vaginal tissue biopsies taken pre-insertion and 28-days post-insertion show characteristic features of healthy a vaginal epithelium, including a multilayered stratified squamous epithelium consisting of enucleated cells, a densely nucleated basal cell layer, and an inconspicuous lamina propria. Vaginal tissue biopsied 28-days post insertion has an intact stratified squamous epithelium that measures approximately 200 μm thick. Both pre-insertion and 28-days post-insertion cervical biopsies contain regions of a single columnar epithelium, while the underlying cervical stroma is composed of densely vascularized, fibromuscular tissue. The 28-day post-insertion cervical biopsy contains a thick stratus corneum of the exocervix; the epithelium overlays a prominent lymphoid aggregate, a feature of mucosa-associated lymphoid tissue (MALT) in the type I mucosa of the endocervix. Some cellular atypia is notable as a few epithelial cells display irregular nuclear membranes and perinuclear halos. […]

[3] = In vitro release of 1% dapivirine from ethylene-vinyl acetate polymers; type: physicochemical; details: 1% DPV in EVA, within 720 hours
Source text: Ethylene-vinyl acetate polymers (EVA) were also investigated for the use in the intrauterine systems described herein. FIGS. 19A-19B are graphs showing release for dapirivine (DPV) in ethylene-vinyl acetate polymers (EVAs), in accordance with the present technology.

HIV-1 = details: cited from earlier work
[4] = cited from earlier work
[5] = In vitro drug release from TPU matrix delivery system prototypes; type: physicochemical; details: for Predicted T50%: from best-fit release model
Protocol: Films were cut into disks with a 1-inch diameter die punch; disks were stacked and placed between two pieces of aluminum foil and compressed under a metal weight on a 120° C. dry bath. Thickness was monitored frequently until it measured 3.5 mm with digital calipers calibrated to 0.01 mm. Devices were cut from thick films using a custom rectangular 3.5 mm×13.3 mm die punch.
All release tests were performed in sink conditions in PBS supplemented with 2% w/v Cremophor® A25/Emulgin® B25. For the first 7-days of drug release testing, 1 mL samples were taken daily; following 7 days, samples were taken every 3-4 days. At all timepoints, bottles were drained and replaced with fresh media following sampling.
A qualification for selecting an optimal TPU for DPV delivery in this application is the time to achieve 50% cumulative release of drug. This is based on the standard use time of hormonal IUDs, which in practice are removed once about half of the initial load of drug is depleted from the device. Here, this standard was used as a benchmark to evaluate the sustained release properties of candidate delivery system designs. […] The fit of first-order release kinetics to the data was assessed. Equations 1 and 2 describe drug release from a system where dissolution is dependent on a concentration gradient.
Where k is the first order rate constant, Ct is the concentration of drug in solution at time t and C0 is the initial concentration of drug.
Where Q is the amount of drug release in time t and kh is the Higuchi release constant.
Based on the best-fit square-root of time relation, T50% was calculated for each TPU. […] Korsmeyer and Peppas provided a method for understanding drug release mechanisms of swelling and non-swelling polymeric systems, given by Equation 4: […]
Where Mt/M∝ is the fraction of drug released at time t, K is the rate constant, and n is the release exponent.

## Cc1cc(C)c(Nc2ccnc(Nc3ccc(C#N)cc3)n2)c(C)c1 [DPV, dapivirine]
[1]
  saturation solubility of DPV in a PY-PT43DE20 core: 5.46±0.93 wt %
physchem
  solubility: 164 ± 9.4 µg/mL (≈ 497 µM)
[2]
  tolerability / histological findings: likely safe and well-tolerated in baboons
[3]
  cumulative release of loaded DPV: about 80%
HIV-1; at 1 nM (0.33 ng/mL)
  inhibition of provirus formation: 99%
HIV-1; at 10 nM (3.3 ng/mL)
  infection prevented (dissemination of HIV-1 by CD4+ dendritic cells): 90%
HIV-1; concentration with which tissue explants were treated
  IC90 in cervicovaginal tissue: 3.3 ng/mL (≈ 0.01 µM)
HIV-1; ex vivo viral inhibition model
  lowest concentration inhibiting productive infection of ectocervical tissue: 0.1 nM
[4]; in vivo
  Cmax: 0.355 ng/mL
  treatment-emergent adverse events: no treatment-emergent adverse events were observed
[4]; oral DPV administration
  plasma concentration required to reduce viral load: 100 to 200 ng/mL
[5]; 1 wt % DPV, all four TPUs, within target range
  DPV dose released per day: 10 to 50 µg/day
[5]; 1 wt % loading, TPU1 matrix
  Actual T50%: 12 days
  First-Order: k: 0.002, h^−1
  Higuchi: kH: 0.029, %/h^1/2
  Korsmeyer-Peppas Constant: n: 0.525,
  Predicted T50%: 12 days
[5]; 1 wt % loading, TPU2 matrix
  Actual T50%: 12 days
  First-Order: k: 0.002, h^−1
  Higuchi: kH: 0.027, %/h^1/2
  Korsmeyer-Peppas Constant: n: 0.549,
  Predicted T50%: 13.5 days
[5]; 1 wt % loading, TPU3 matrix
  Actual T50%: 7 days
  First-Order: k: 0.004, h^−1
  Higuchi: kH: 0.038, %/h^1/2
  Korsmeyer-Peppas Constant: n: 0.662,
  Predicted T50%: 7 days
[5]; 1 wt % loading, TPU4 matrix
  First-Order: k: 0.0007, h^−1
  Higuchi: kH: 0.017, %/h^1/2
  Korsmeyer-Peppas Constant: n: 0.614,
  Predicted T50%: 36 days
[5]; 1 wt %, TPU3 matrix, by 30 days / one month
  cumulative release of encapsulated drug: approximately 95%
[5]; 16.6 wt % loading, TPU4 matrix
  First-Order: k: 0.0005 h⁻¹
  Higuchi: kH: 0.014, %/h^1/2
  Predicted T50%: 53.5 days
[5]; 16.6 wt %, TPU4 matrix, after 30 days
  cumulative release of loaded drug: approximately 33.5%
[5]; 16.6 wt %, TPU4 matrix, final rate at 30 days, per each ⅓ segment of the device
  release rate: approximately 62.56 μg/day
